The values that follow are results of earlier work, collected in US6849589B2, “Cleaning composition” (3M Innovative Properties Company, priority 2001, dated 2005).

For this data set the following is noted: in water, at about 20° C.
As for `CCCCCCCCO` [Example 1-octanol, 1-octanol], the water solubility entry is recorded as “about 0.1 weight percent”.
Take `CC(C)CCCCCO` [isooctyl alcohol]: the water solubility entry was “about 0.06 weight percent”.
Take `CC(C)CC(=O)CC(C)C` [di-isobutyl ketone]: the water solubility result is on record as “about 0.05 weight percent”.
As for `CCCCCCCCN1CCCC1=O` [N-octyl pyrrolidone], the water solubility entry was “about 0.124 weight percent”.
